Common to all, as to type: nucleic-acid assay
Assay [1] deals with DNA. Briefly: Stabilization of [32P]-labelled dsDNA (unknown origin) assessed as drug-DNA adduct formation at 5 uM in presence of formaldehyde incubated for 12 hrs by phosphorimaging analysis relative to control.
Assay [2] deals with DNA. Briefly: Stabilization of [32P]-labelled dsDNA (unknown origin) assessed as drug-DNA adduct formation at 1 uM to 24 uM incubated for 12 hrs in presence of formaldehyde by phosphorimaging analysis.
For assay [3], the system named is DNA. Put plainly: Stabilization of dsBE12 oligonucleotide (unknown origin) assessed as drug-DNA adduct formation at 5 to 50 uM incubated for 4 hrs in presence of formaldehyde using [gamma-32P]ATP by phosphorimaging analysis relative to control.
For assay [4], the system named is DNA. Briefly: Stabilization of dsBE17 oligonucleotide (unknown origin) assessed as drug-DNA adduct formation at 5 to 50 uM incubated for 4 hrs in presence of formaldehyde using [gamma-32P]ATP by phosphorimaging analysis.
Assay [5] relates to DNA. Briefly: Induction of transcriptional blockage of 512 bp DNA fragment (unknown origin) at 2.5 to 10 uM incubated for 4 hrs in presence of formaldehyde using [alpha-32P]UTP by phosphorimaging analysis.
Assay [6] deals with DNA. Briefly: Stabilization of dsBE67 oligonucleotide (unknown origin) assessed as drug-DNA adduct formation at 5 to 50 uM incubated for 4 hrs in presence of formaldehyde using [gamma-32P]ATP by phosphorimaging analysis relative to control.
Assay [7] concerns DNA. Briefly: Stabilization of dsBE15 oligonucleotide (unknown origin) assessed as drug-DNA adduct formation at 5 to 50 uM incubated for 4 hrs in presence of formaldehyde using [gamma-32P]ATP by phosphorimaging analysis.
For assay [8], the system named is DNA. Put plainly: Stabilization of [32P]-labelled dsDNA (unknown origin) assessed as drug-DNA adduct formation by measuring residual dsDNA level at 6 uM measured after 16 hrs in presence of formaldehyde by phosphorimaging analysis relative to control.
The subject of assay [9] is DNA. Put plainly: Stabilization of [32P]-labelled dsDNA (unknown origin) assessed as drug-DNA adduct formation by measuring adduct half life incubated for 12 hrs in presence of formaldehyde by phosphorimaging analysis.
Assay [10] has as its system DNA. Briefly: Stabilization of [32P]-labelled dsDNA (unknown origin) assessed as drug-DNA adduct formation incubated for 12 hrs in presence of formaldehyde by phosphorimaging analysis.
Assay [11] concerns DNA. Put plainly: Stabilization of [32P]-labelled dsDNA (unknown origin) assessed as drug-DNA adduct formation by measuring residual dsDNA level at 6 uM measured after 10 days in presence of formaldehyde by phosphorimaging analysis relative to control.
For assay [12], the system named is DNA. Briefly: Binding affinity to dsBE45 oligonucleotide (unknown origin) assessed as drug-DNA adduct formation at 5 to 50 uM incubated for 4 hrs in presence of formaldehyde using [gamma-32P]ATP by phosphorimaging analysis.
In assay [13] the test system is DNA. Put plainly: Stabilization of [32P]-labelled dsDNA (unknown origin) assessed as drug-DNA adduct formation by measuring adduct half life at 10 uM in presence of formaldehyde by phosphorimaging analysis.
Assay [14] concerns DNA. Put plainly: Stabilization of [32P]-labelled dsDNA (unknown origin) assessed as drug-DNA adduct formation by measuring residual dsDNA level at 2.5 uM measured after 16 hrs in presence of formaldehyde by phosphorimaging analysis relative to control.
Assay [15] concerns DNA. Briefly: Stabilization of [32P]-labelled dsDNA (unknown origin) assessed as drug-DNA adduct formation by measuring increase in retardation of dsDNA migration on gel at >3 uM incubated for 12 hrs in presence of formaldehyde by phosphorimaging analysis.
The subject of assay [16] is DNA. Put plainly: Induction of transcriptional blockage of 512 bp DNA fragment (unknown origin) assessed as loss of full length transcript comprising 379 nucleotide at 10 uM incubated for 4 hrs in presence of formaldehyde using [alpha-32P]UTP by phosphorimaging analysis relative to control.
Assay [17] has as its system DNA. Put plainly: Induction of transcriptional blockage of 512 bp DNA fragment (unknown origin) at 2.5 uM incubated for 4 hrs in presence of formaldehyde using [alpha-32P]UTP by phosphorimaging analysis.
Assay [18] concerns DNA. Put plainly: Stabilization of dsBE15 oligonucleotide (unknown origin) assessed as drug-DNA adduct formation at 50 uM incubated for 4 hrs in presence of formaldehyde using [gamma-32P]ATP by phosphorimaging analysis relative to control.
The test system of assay [19] is DNA. Briefly: Induction of transcriptional blockage of 512 bp DNA fragment (unknown origin) assessed as loss of full length transcript comprising 379 nucleotide at 5 uM incubated for 4 hrs in presence of formaldehyde using [alpha-32P]UTP by phosphorimaging analysis.

Molecules are shown by their SMILES. Active and inactive are the calls of the source. The rule behind the calls is not given here. Bounds are passed on as bounds.

Consider `NCCCCCNc1ccc(NCCCCCN)c2c1C(=O)c1ccncc1C2=O`, for which the Activity in the assay with DNA [1] was under 2%. Moreover, in the assay with DNA [2], the result was inactive.

Consider `NCCCCCNc1ccc(F)c2c1C(=O)c1ccncc1C2=O`, for which the Activity in the assay with DNA [1] was under 1%. Further, in the assay with DNA [2], the outcome was inactive.

With `NCCNCCNc1ccc(F)c2c1C(=O)c1c(O)ccc(O)c1C2=O`, the results for the Activity in the assay with DNA [1], in the assay on DNA [8] and in the assay on DNA [10] were 25%, 20% and “Dose-dependent effect”, respectively. In addition, the outcome with DNA [3], with DNA [4], in the assay with DNA [5], in the assay with DNA [6] and with DNA [7] was Active. Further, the T1/2 with DNA [9] is 10 h.

For the compound `NCCCCCNc1ccc(NCCCCCN)c2c1C(=O)c1c(O)ccc(O)c1C2=O`, the Activity was 40% in the assay with DNA [1], 20% in the assay with DNA [3], 17% with DNA [11] and 30% in the assay on DNA [6]. The result in the assay with DNA [2] and in the assay on DNA [4] was Active. The outcome with DNA [7] and in the assay on DNA [12] was inactive. For the same compound, the T1/2 with DNA [9] was determined as 53 h.

Turning to `NCCNc1ccc(NCCN)c2c1C(=O)c1c(O)ccc(O)c1C2=O`, the figures for the Activity in the assay on DNA [1], with DNA [3] and in the assay on DNA [6] were 30%, 30% and under 55%, respectively. Also, the outcome with DNA [2] and with DNA [4] was Active. The outcome in the assay on DNA [7] and in the assay on DNA [12] was inactive. In the assay with DNA [9], the T1/2 worked out at 2.3 h.

Turning to `NCCCCCNc1ccc(F)c2c1C(=O)c1c(O)ccc(O)c1C2=O`, the Activity is 50% in the assay on DNA [1] and 10% with DNA [6]. The result in the assay with DNA [3], in the assay on DNA [7] and in the assay on DNA [12] was inactive. The outcome with DNA [2] and with DNA [4] was Active. In addition, the T1/2 in the assay with DNA [9] came to 24 h; with DNA [13], 27 h.

For the compound `NCCNCCNc1ccc(NCCNCCN)c2c1C(=O)c1c(O)ccc(O)c1C2=O`, the Activity is 20% in the assay on DNA [14]; 90 to 100% with DNA [1]; under 80% with DNA [3]; 100% in the assay with DNA [16]; over 75% with DNA [18]; “Dose-dependent effect” in the assay on DNA [10]. In addition, the outcome with DNA [15], in the assay on DNA [17], in the assay on DNA [4], with DNA [6], with DNA [12] and with DNA [19] was Active. Besides, the T1/2 in the assay on DNA [9] was found to be 12.5 h.

In the case of `O=C1c2c(O)ccc(O)c2C(=O)c2c(NCCNCCO)ccc(NCCNCCO)c21`, the Activity in the assay on DNA [1] came out at 5%. The result in the assay on DNA [3] was Active. Moreover, the T1/2 with DNA [9] worked out at 0.42 h.

Source of the values: ChEMBL document CHEMBL4616593, “Formaldehyde-activated WEHI-150 induces DNA interstrand crosslinks with unique structural features” (Bioorg Med Chem, 2020).
